Test results as given in patent US7183267B2, “β-lactamase inhibitors and methods of use thereof” (priority 2003, dated 2007).
“And” between values parts separate entries of the source, which are not always exact repeats. Equal values may be shown once. Read-outs that look alike come from different tables or passages of the source.

Experiments:
β-lactamase mutant E104K = β-lactamase mutant E104K (Escherichia coli, UniProt P62593, E102K); assay type: biochemical; conditions: number higher than 1 reflects a loss of potency against mutant
Protocol: (§1) The inhibition of TEM-1 β-lactamase was determined spectrophotometrically. B-lactamase activity was followed by measuring the hydrolysis of nitrocefin, [3-(2,4-dinitrostyryl)-(6R, 7R)-7-(2-thienylacetamido)-ceph-3-em-4-carboxylic acid, E-isomer], (Calbiochem, San Diego, Calif., USA) at 486 nm. Inhibition assays were performed at 25° C. in 50 mM sodium phosphate, 5% DMSO, pH 7.0. […] Inhibitor was added to the enzyme and incubated for ten minutes before the addition of substrate. Inhibition constants (Ki) for the inhibitors are obtained at the desired temperature and solvent conditions by measuring the rate of substrate hydrolysis at increasing amounts of inhibitors.
(§2) Three of the most important mutations are M69I, R244S and E104K.

β-lactamase mutant R244S = β-lactamase mutant R244S (Escherichia coli, UniProt P62593, R241S); assay type: biochemical; conditions: number higher than 1 reflects a loss of potency against mutant
Protocol: as §1, §2

β-lactamase mutant M69I = β-lactamase mutant M69I (Escherichia coli, UniProt P62593, M67I); assay type: biochemical; conditions: number higher than 1 reflects a loss of potency against mutant
Protocol: as §1, §2

TEM-1 β-lactamase [1] = biological target: T1, TEM-1 β-lactamase (Escherichia coli, UniProt P62593); test: Isothermal titration calorimetry, binding to TEM-1 β-lactamase (Example 17); conditions: ITC
Summary of the method: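 TEM-1 β-lactamase (15–25 μM) titrated with inhibitor (300–1000 μM) in 50 mM sodium phosphate, 2% DMSO, pH 7.0. Integrated injection heats were corrected for inhibitor dilution heat to give binding heat.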

β-lactamase wt = β-lactamase wt (Escherichia coli, UniProt P62593); test: Isothermal titration calorimetry, binding enthalpy, wild type
Protocol: (§3) The binding of the compounds of the present invention to β-lactamase was also measured by isothermal titration calorimetry.
(§4) These experiments, in combination with the inhibition assays, indicate that the compounds identified in this disclosure bind to the wild type as well as drug resistant beta lactamases with favorable binding enthalpies. This is a very important characteristic from the point of view of further optimization since it facilitates the achievement of extremely high affinities and low susceptibilities to drug resistant mutations and naturally occurring polymorphisms.
(§5) Isothermal titration calorimetry was performed on a high-precision VP-ITC titration calorimeter (Microcal Inc., Northampton, Mass.). β-Lactamase solutions were titrated with inhibitors in 50 mM sodium phosphate, 2% DMSO, pH 7.0, with β-lactamase concentrations ranging from 15 to 25 μM and inhibitor concentrations ranging from 300 to 1000 μM. The heat evolved from each injection was obtained by integrating the calorimetric signal. Heat of binding was obtained as the difference between the heat of reaction and the heat of inhibitor dilution. Data were analyzed using Origin 7.0 (OriginLab Corporation, Northampton, Mass.).

β-lactamase E104K = β-lactamase E104K (Escherichia coli, UniProt P62593, E102K); test: Isothermal titration calorimetry, binding enthalpy, E104K mutant
Protocol: as §3, §4, §5

β-lactamase R244S = β-lactamase R244S (Escherichia coli, UniProt P62593, R241S); test: Isothermal titration calorimetry, binding enthalpy, R244S mutant
Protocol: as §3, §4, §5

β-lactamase M69I = β-lactamase M69I (Escherichia coli, UniProt P62593, M67I); test: Isothermal titration calorimetry, binding enthalpy, M69I mutant
Protocol: as §3, §4, §5

TEM-1 β-lactamase [2] = biological target: T1, TEM-1 β-lactamase; test: TEM-1 β-lactamase inhibition assay (nitrocefin hydrolysis, 486 nm); assay type: biochemical
Summary of the method: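 TEM-1 activity followed by nitrocefin hydrolysis at 486 nm, 25 °C, 50 mM sodium phosphate pH 7.0, 5% DMSO; inhibitor preincubated with enzyme 10 min before substrate. Ki obtained from rates at increasing inhibitor concentrations fitted to competitive-inhibition equations; penicillin G also used as substrate for KM and kcat.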

AmpC β-lactamase = biological target: T2, AmpC β-lactamase (Escherichia coli, UniProt P00811); assay type: biochemical; conditions: substrate hydrolysis by AmpC, 25° C., pH 7.0
T2 construct: made in house; host or cells: E. coli BL21 (DE3)
T2 sequence (P00811 20-377): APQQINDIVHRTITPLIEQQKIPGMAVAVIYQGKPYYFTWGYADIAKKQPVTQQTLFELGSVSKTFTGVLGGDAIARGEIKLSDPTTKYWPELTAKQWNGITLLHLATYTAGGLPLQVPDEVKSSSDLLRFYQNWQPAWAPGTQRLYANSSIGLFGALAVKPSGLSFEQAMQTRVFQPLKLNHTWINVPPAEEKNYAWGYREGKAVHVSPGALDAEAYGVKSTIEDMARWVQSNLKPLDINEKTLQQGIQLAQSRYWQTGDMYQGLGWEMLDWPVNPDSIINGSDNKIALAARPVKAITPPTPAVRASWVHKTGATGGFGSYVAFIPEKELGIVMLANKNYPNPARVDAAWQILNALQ
Protocol: The competitive inhibition of β-lactamase was determined spectrophotometrically using a Varian (Walnut Creek, Calif.) Cary 100 UV-Visible spectrophotometer. β-lactamase activity was followed by measuring the hydrolysis of nitrocefin, [3-(2,4-dinitrostyryl)-(6R, 7R)-7-(2-thienylacetamido)-ceph-3-em-4-carboxylic acid, E-isomer], (Calbiochem, San Diego, Calif.) at 486 nm. Inhibition assays were performed at 25° C. in 50 mM sodium phosphate, 5% DMSO, pH 7.0. […] Penicillin G (Sigma, St. Louis, Mo.) was also used as a substrate to determine KM and kcat.

**Q.** With O=C(Oc1ccccc1[N+](=O)[O-])c1cc(B(O)O)cc([N+](=O)[O-])c1 [Compound (1b), 3-(2-Nitrophenoxycarbonyl)-5-nitrophenylboronic acid] as the compound, how does the melting point read?
**A.** 128 to 130 °C

**Q.** And the “Loss of potency: ratio of the inhibitory constant between mutant and wild type (Potencywt/Potencymutant), E104K” value (β-lactamase mutant E104K)?
**A.** 0.92

**Q.** And the “Loss of potency: ratio of the inhibitory constant between mutant and wild type (Potencywt/Potencymutant), R244S” value (β-lactamase mutant R244S)?
**A.** 1.2

**Q.** And the “Loss of potency: ratio of the inhibitory constant between mutant and wild type (Potencywt/Potencymutant), M69I” value (β-lactamase mutant M69I)?
**A.** 1.0

**Q.** What about the ΔG (TEM-1 β-lactamase [1]) of the same compound?
**A.** -6.42 kcal/mol

**Q.** What about the ΔH (TEM-1 β-lactamase [1]) of the same compound?
**A.** -4.011 kcal/mol

**Q.** And the “−TΔS” value (TEM-1 β-lactamase [1])?
**A.** -2.409 kcal/mol

**Q.** What about the ΔH wt (β-lactamase wt) of the same compound?
**A.** -3.8 kcal/mol

**Q.** And the “ΔH E104K” value (β-lactamase E104K)?
**A.** -3.9 kcal/mol

**Q.** What about the “ΔH R244S” value (β-lactamase R244S) of the same compound?
**A.** -9.5 kcal/mol

**Q.** What about the “ΔH M69I” value (β-lactamase M69I) of the same compound?
**A.** -2 kcal/mol

**Q.** What about the Ki (TEM-1 β-lactamase [2]; Ki from Lineweaver-Burke Analysis, values in parenthesis, Lineweaver-Burke analysis) of the same compound?
**A.** 1.18 µM

**Q.** And the Ki (TEM-1 β-lactamase [2]; Ki, 25° C., 50 mM sodium phosphate, 5% DMSO, pH 7.0, enzyme 5 nM, nitrocefin 167 μM)?
**A.** 12 ± 3 µM

**Q.** What about the Ki (TEM-1 β-lactamase [2]; Ki, TEM-1 β-lactamase) of the same compound?
**A.** 12 µM

**Q.** Which results are given for O=C(Cc1cccs1)N[C@@H]1C(=O)N2C(C(=O)O)=C(/C=C/c3ccc([N+](=O)[O-])cc3[N+](=O)[O-])CS[C@H]12 [nitrocefin, 3-(2,4-dinitrostyryl)-(6R, 7R)-7-(2-thienylacetamido)-ceph-3-em-4-carboxylic acid, E-isomer]?
**A.** Km (AmpC β-lactamase): 250 µM and 253 µM; kcat (AmpC β-lactamase): 975 s⁻¹ and 976 ± 46 s⁻¹

**Q.** Which results are given for CC1(C)S[C@@H]2[C@H](NC(=O)Cc3ccccc3)C(=O)N2[C@H]1C(=O)O [penicillin G, Penicillin G]?
**A.** kcat (AmpC β-lactamase): 198 ± 4 s⁻¹; Km (AmpC β-lactamase; read-out: KM): 28 ± 3 µM
